In assay [1] the target is T1, RET(KD: 658-1114 G810R) (Homo sapiens, UniProt P07949, G810R).
T1 construct: 658-1114; expressed in transfected cells; host or cells: 293T.165 (293T cells, generated in-house)
T1 sequence (P07949 658-1114 G810R): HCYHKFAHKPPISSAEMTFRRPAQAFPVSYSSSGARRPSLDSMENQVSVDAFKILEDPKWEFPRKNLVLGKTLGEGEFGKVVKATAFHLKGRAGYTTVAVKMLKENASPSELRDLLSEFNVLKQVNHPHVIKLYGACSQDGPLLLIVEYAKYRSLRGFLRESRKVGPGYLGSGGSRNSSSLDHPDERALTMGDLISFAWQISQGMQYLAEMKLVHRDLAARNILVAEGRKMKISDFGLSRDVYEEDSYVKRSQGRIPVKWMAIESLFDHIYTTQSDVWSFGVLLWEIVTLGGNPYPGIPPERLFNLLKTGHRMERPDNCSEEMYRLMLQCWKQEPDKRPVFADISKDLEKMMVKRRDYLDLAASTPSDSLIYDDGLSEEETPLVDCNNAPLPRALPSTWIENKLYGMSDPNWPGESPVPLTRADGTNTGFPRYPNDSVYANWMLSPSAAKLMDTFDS
The experiment in a line: HiBiT-Degradation, RET G810R degradation assay (Nano-Glo HiBiT Lytic), 293T.165 cells. Type of assay: cell-based. The conditions noted are these: for Emax / DC50: 6.0 hours. The procedure, abridged:
(§1)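 HEK293T lines stably expressing HiBiT-tagged RET kinase domain (WT: 293T.144; G810R: 293T.165) were treated with degraders for 6 h in duplicate, 11-point half-log series from 10 μM top dose. Lysis with Nano-Glo HiBiT Lytic reagent, luminescence read; DC50 and Emax (% remaining protein) derived from dose-response curves.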
Background: The HiBiT peptide binds its large partner to form an active luciferase.

Assay [2] addresses T2, RET (658-1114) (Homo sapiens, UniProt P07949).
T2 construct: 658-1114; expressed in transfected cells; host or cells: 293T.144 (293T cells, generated in-house)
T2 sequence (P07949 658-1114): T1 sequence (P07949 658-1114 G810R) with R153G
The experiment in a line: HiBiT-Degradation, RET wild-type degradation assay (Nano-Glo HiBiT Lytic), 293T.144 cells. The format is cell-based. Conditions: for Emax / DC50: 6.0 hours. The procedure, abridged:
as §1

The mark [3] stands for this setting: % remaining protein, read-out: 293T.165 RET(KD: 658-1114 G810R) 6.0 hours (Emax).
[4] abbreviates: half-maximal degradation concentration, read-out: 293T.165 RET(KD: 658-1114 G810R) 6.0 hours (DC50).
Where [5] appears, read: % remaining protein, read-out: 293T.144 RET (658-1114) 6.0 hours (Emax).
Setting [6] is: half-maximal degradation concentration, read-out: 293T.144 RET (658-1114) 6.0 hours (DC50).
Setting [7] is: RET G810R, read-out: HiBiT-Degradation 293T.165 RET(KD: 658-1114 G810R) 6.0 hours (DC50).
[8] abbreviates: RET G810R, read-out: HiBiT-Degradation 293T.165 RET(KD: 658-1114 G810R) 6.0 hours (Emax).
The mark [9] stands for this setting: RET wild-type, read-out: HiBiT-Degradation 293T.144 RET (658-1114) 6.0 hours (DC50).
Setting [10] is: RET wild-type, read-out: HiBiT-Degradation 293T.144 RET (658-1114) 6.0 hours (Emax).
Where [11] appears, read: HiBiT-Degradation, read-out: 293T.165 RET(KD: 658-1114 G810R) 6.0 hours (DC50).
Where [12] appears, read: HiBiT-Degradation, read-out: 293T.144 RET (658-1114) 6.0 hours (DC50).
Setting [13] is: HiBiT-Degradation, read-out: 293T.144 RET (658-1114) 6.0 hours (Emax).

Substitutions are numbered along the chain they refer to. Read-outs that look alike come from different tables or passages of the source.

Broadly, the Emax is the size of the effect at its maximum, as opposed to the concentration needed. Broadly, the DC50 is the concentration giving 50% degradation. With `CCC1(C(=O)NC(C)C)CCN(c2ccc(-c3cc(-c4cnn(C5CC6(C5)CN(C5CCN(c7ccc(NC8CCC(=O)NC8=O)cc7F)CC5)C6)c4)cn4ncc(C#N)c34)cn2)CC1` (centres unmarked) [Compound 199, 1-(5-(3-cyano-6-(1-(2-(1-(4-((2,6-dioxopiperidin-3-yl)amino)-2-fluorophenyl)piperidin-4-yl)-2-azaspiro[3.3]heptan-6-yl)-1H-pyrazol-4-yl)pyrazolo[1,5-a]pyridin-4-yl)pyridin-2-yl)-4-ethyl-N-isopropylpiperidine-4-carboxamide], the “293T.165 RET(KD: 658-1114 G810R) 6.0 hours (IP) [nM]” value in assay [1] is “+++ (<100 nM = +++)”. For the same compound, the Emax in assay [1] (setting [3]) and in assay [2] (setting [5]) was below 30% throughout. The 50% degradation concentration (DC50) in assay [1] (setting [4]) and in assay [2] (setting [6]) was below 0.05 µM each time. Moreover, the “293T.144 RET (658-1114) 6.0 hours (IP) [nM]” value in assay [2] is recorded as “++++ (<50 nM = ++++)”.

`CCC1(C(=O)NC(C)C)CCN(c2ccc(-c3nc(-c4cnn(C5CCN(C(=O)CC6(O)CCN(c7ccc(N[C@H]8CCC(=O)NC8=O)cc7F)CC6)CC5)c4)cn4ncc(C#N)c34)cn2)CC1` (single isomer, unassigned) [Compound 80]: the values for the Emax in assay [1] (setting [3]), in assay [1] (setting [8]) and in assay [2] (setting [10]) were below 50%, below 50% and below 30%, respectively. In addition, the DC50 in assay [1] (setting [4]), in assay [1] (setting [7]) and in assay [2] (setting [9]) was below 0.05 µM throughout. In addition, the “HiBiT-Degradation 293T.165 RET(KD: 658-1114 G810R) 6.0 hours (IP) [nM]” value in assay [1] (RET G810R) is “++++ (< 50 nM = ++++)”. In addition, the “HiBiT-Degradation 293T.144 RET (658-1114) 6.0 hours (IP) [nM]” value in assay [2] (RET wild-type) is on record as “++++ (< 50 nM = ++++)”.

As for `CC(C)NC(=O)C1(C)CCN(c2ccc(-c3cc(-c4cnn(CCCCCCN5CCC(c6ccc7c(N8CCC(=O)NC8=O)nn(C)c7c6)CC5)c4)cn4ncc(C#N)c34)cn2)CC1` [Compound 82, 1-[5-[3-cyano-6-[1-[6-[4-[3-(2,4-dioxohexahydropyrimidin-1-yl)-1-methyl-indazol-6-yl]-1-piperidyl]hexyl]pyrazol-4-yl]pyrazolo[1,5-a]pyridin-4-yl]-2-pyridyl]-N-isopropyl-4-methyl-piperidine-4-carboxamide], the maximal response (Emax) in assay [1] (setting [3]), in assay [1] (setting [8]) and in assay [2] (setting [10]) was below 30% throughout. For the same compound, the DC50 was below 0.1 µM in assay [1] (setting [4]), below 0.1 µM in assay [1] (setting [7]) and below 0.05 µM in assay [2] (setting [9]). Moreover, the “HiBiT-Degradation 293T.165 RET(KD: 658-1114 G810R) 6.0 hours (IP) [nM]” value in assay [1] (RET G810R) was “++++ (< 50 nM = ++++)”. Moreover, the “HiBiT-Degradation 293T.144 RET (658-1114) 6.0 hours (IP) [nM]” value in assay [2] (RET wild-type) was “++++ (< 50 nM = ++++)”.

`CCC1(C(=O)NC(C)C)CCN(c2ccc(-c3cc(-c4ccc(N5CCC(O)(CCN6CCC(c7ccc(NC8CCC(=O)NC8=O)cc7F)CC6)CC5)cc4)cn4ncc(C#N)c34)cn2)CC1` (centres unmarked) [Compound 39, 1-(5-(3-Cyano-6-(4-(4-(2-(4-(4-((2,6-dioxopiperidin-3-yl)amino)-2-fluorophenyl)piperidin-1-yl)ethyl)-4-hydroxypiperidin-1-yl)phenyl)pyrazolo[1,5-a]pyridin-4-yl)pyridin-2-yl)-4-ethyl-N-isopropylpiperidine-4-carboxamide]: the Emax in assay [1] (setting [3]) and in assay [2] (setting [13]) was below 30% each time. The DC50 in assay [1] (setting [4]), in assay [1] (setting [11]) and in assay [2] (setting [12]) was below 0.05 µM each time. For the same compound, the “293T.165 RET(KD: 658-1114 G810R) 6.0 hours (Emax)” value in assay [1] (HiBiT-Degradation) was “++++ (< 30% = ++++)”. In addition, in assay [1] (HiBiT-Degradation), the “293T.165 RET(KD: 658-1114 G810R) 6.0 hours (IP) [nM]” value is recorded as “++++ (< 50 nM = ++++)”. In addition, the “293T.144 RET (658-1114) 6.0 hours (IP) [nM]” value in assay [2] (HiBiT-Degradation) is recorded as “++++ (< 50 nM = ++++)”.

Regarding `N#Cc1cnn2cc(-c3cnn(C4CCN(C(=O)CN5CCC(c6ccc(NC7CCC(=O)NC7=O)cc6F)CC5)CC4)c3)cc(-c3ccc(N4CC5CCC(C4)N5Cc4ccccn4)nc3)c12` (centres unmarked) [Compound 62, 6-[1-[1-[2-[4-[4-[(2,6-dioxo-3-piperidyl)amino]-2-fluoro-phenyl]-1-piperidyl]acetyl]-4-piperidyl]pyrazol-4-yl]-4-[6-[8-(2-pyridylmethyl)-3,8-diazabicyclo[3.2.1]octan-3-yl]-3-pyridyl]pyrazolo[1,5-a]pyridine-3-carbonitrile], the Emax was below 50% in assay [1] (setting [3]) and below 30% in assay [2] (setting [13]). Moreover, the results for the DC50 in assay [1] (setting [4]), in assay [1] (setting [11]) and in assay [2] (setting [12]) were below 0.1 µM, below 0.1 µM and below 0.05 µM, respectively. In assay [1] (HiBiT-Degradation), the “293T.165 RET(KD: 658-1114 G810R) 6.0 hours (Emax)” value is “+++ (<50% = +++)”. For the same compound, in assay [1] (HiBiT-Degradation), the “293T.165 RET(KD: 658-1114 G810R) 6.0 hours (IP) [nM]” value was “++++ (< 50 nM = ++++)”. Moreover, the “293T.144 RET (658-1114) 6.0 hours (IP) [nM]” value in assay [2] (HiBiT-Degradation) was “++++ (< 50 nM = ++++)”.

For the compound `CCC1(C(=O)NC(C)C)CCN(c2ccc(-c3nc(-c4cnn([C@H]5CC[C@H](N6CCC(c7ccc(N[C@H]8CCC(=O)NC8=O)cc7F)CC6)CC5)c4)cn4ncc(C#N)c34)cn2)CC1` (single isomer, unassigned) [Compound 123], the “293T.165 RET(KD: 658-1114 G810R) 6.0 hours (IP) [nM]” value in assay [1] is recorded as “++++ (<50 nM = ++++)”. Besides, the Emax in assay [1] (setting [3]) and in assay [2] (setting [5]) was below 30% each time. The DC50 in assay [1] (setting [4]) and in assay [2] (setting [6]) was below 0.05 µM each time. For the same compound, the “293T.144 RET (658-1114) 6.0 hours (IP) [nM]” value in assay [2] is listed as “++++ (<50 nM = ++++)”.

Turning to `CC(C)NC(=O)C1(C)CCN(c2ccc(-c3cc(-c4cnn(C5CCC6(CC5)CN(C(=O)CN5CCC(c7ccc(NC8CCC(=O)NC8=O)cc7)CC5)C6)c4)cn4ncc(C#N)c34)cn2)CC1` (centres unmarked) [Compound 196, 1-(5-(3-cyano-6-(1-(2-(2-(4-(4-((2,6-dioxopiperidin-3-yl)amino)phenyl)piperidin-1-yl)acetyl)-2-azaspiro[3.5]nonan-7-yl)-1H-pyrazol-4-yl)pyrazolo[1,5-a]pyridin-4-yl)pyridin-2-yl)-N-isopropyl-4-methylpiperidine-4-carboxamide], the “293T.165 RET(KD: 658-1114 G810R) 6.0 hours (IP) [nM]” value in assay [1] is reported as “++++ (<50 nM = ++++)”. Also, the Emax in assay [1] (setting [3]) and in assay [2] (setting [5]) was below 30% in each case. Further, the values for the DC50 in assay [1] (setting [4]) and in assay [2] (setting [6]) were below 0.1 µM and below 0.05 µM, respectively. Further, in assay [2], the “293T.144 RET (658-1114) 6.0 hours (IP) [nM]” value is on record as “++++ (<50 nM = ++++)”.

Turning to `CCC1(C(=O)NC(C)C)CCN(c2ccc(-c3nc(-c4cnn([C@H]5CC[C@H](N6CCC(c7ccc(N[C@@H]8CCC(=O)NC8=O)cc7F)CC6)CC5)c4)cn4ncc(C#N)c34)cn2)CC1` (single isomer, unassigned) [Compound 124], the “293T.165 RET(KD: 658-1114 G810R) 6.0 hours (IP) [nM]” value in assay [1] is recorded as “++++ (<50 nM = ++++)”. Further, the Emax in assay [1] (setting [3]) and in assay [2] (setting [5]) was below 30% throughout. In addition, the DC50 in assay [1] (setting [4]) and in assay [2] (setting [6]) was below 0.05 µM throughout. Also, in assay [2], the “293T.144 RET (658-1114) 6.0 hours (IP) [nM]” value is reported as “++++ (<50 nM = ++++)”.

Consider `N#Cc1cnn2cc(-c3cnn([C@H]4CC[C@H](N5CCN(c6ccc(N[C@@H]7CCC(=O)NC7=O)cc6F)CC5)CC4)c3)nc(-c3ccc(N4CC5COCC(C4)N5Cc4ccccn4)nc3)c12` (single isomer, unassigned) [Compound 156], for which the “293T.165 RET(KD: 658-1114 G810R) 6.0 hours (IP) [nM]” value in assay [1] is “++++ (<50 nM = ++++)”. Besides, the Emax in assay [1] (setting [3]) and in assay [2] (setting [5]) was below 30% each time. For the same compound, the DC50 in assay [1] (setting [4]) and in assay [2] (setting [6]) was below 0.05 µM each time. For the same compound, the “293T.144 RET (658-1114) 6.0 hours (IP) [nM]” value in assay [2] was “++++ (<50 nM = ++++)”.

The values are drawn from patent US12661410B2, “Compounds for targeted degradation of RET” (C4 Therapeutics, Inc., priority 2020, dated 2026).
